Article PMC10699557, “A recombinant approach for stapled peptide discovery yields inhibitors of the RAD51 recombinase” (Chemical Science, 2023)
“Also recorded” adds a separate entry of the source. Numbered stars: 1 amine (or outer) side, 2 acyl side, 3 side chain; on linkers, the order of the positions; unused ones are H or OH. Bridge positions count the residues as written; N and C are the ends. Peptide text beside a SMILES is read from it. X1 = Nc1nc(CC[*:1])cc(CC[*:2])n1

Legend:
[1] = target: monomeric version of RAD51 (HumRadA22) (Pyrococcus furiosus, UniProt O74036); assay: Fluorescence polarisation (FP) competition assay: displacement of fluorescein-labelled BRC4 repeat; assay type: binding, archaeal RadA mutant with human Rad51 surface residues; conditions: read-out: FP competition KD, nM, Stapled; stapled product (linker DVT or DVP as in Table 1); 100 nM HumRadA22, 10 nM BRC4-fluorescein; 20 mM CHES pH 9.5, 150 mM NaCl, 0.1% BSA, 0.1% Tween-20; KD calculated from IC50; single titration, three technical replicates per point
From the text: We prepared all stapled peptides from small-scale bacterial cultures as GB1/C-His8 fusions and cyclised them with the DVT linker. For peptides SP10, SP11, SP12 and SP15, correct stapling was confirmed by MS, showing a similar composition to SP2 (Fig. S15–S18 ^†). Thus, we confirm that the pseudo-dilution approach is robust in yielding almost exclusively the cyclised product, irrespective of whether a helical or non-helical motif is being constrained. To examine the effect of introducing a covalent staple on affinity, a mock reaction was done in parallel for each peptide by splitting the IMAC elution into two halves and adding DMSO to the mock control instead of the linker. TCEP (500 μM) was included in the mock reaction to maintain the peptide in linear form by preventing disulfide formation. The peptides were tested in a fluorescence polarisation (FP) assay monitoring the displacement of a fluorescently-labelled BRC4 repeat from a monomeric version of RAD51 (HumRadA22), as reported previously.[25] […]
Fluorescence polarisation competition assay
FP competition assay was a modified version of a protocol described previously. Fluorescein-labelled HsBRC4 probe for this assay was kindly provided by Dr Laurens Lindenburg (Hollfelder group, Department of Biochemistry, University of Cambridge). Black 384-well flat-bottom microplates (Corning, 3821) were used with a 40 μl final reaction volume in all measurements. Following buffer conditions were used: 20 mM CHES pH 9.5, 150 mM NaCl, 0.1% BSA, 0.1% Tween-20. Each reaction contained 100 nM HumRadA22 and 10 nM BRC4-fluorescein. Two-fold serial dilutions of stapled peptides were added to the reactions. A free probe control reaction containing only 10 nM BRC4-fluorescein was used to calibrate gain and focal height. FP measurements were performed on Pherastar FX or Clariostar Plus (BMG Labtech) plate readers equipped with an FP 485-520-520 optic modules. Binding curves were fitted using the four-parameter logistic model with a variable Hill slope using Prism software (Graphpad). Regression fitting was performed using the least squares optimisation algorithm.
KD values were estimated from the fitted IC 50 parameters using a previously reported

RAD51 foci in U2OS cells = assay: Immunofluorescence of IR-induced RAD51 foci formation; assay type: cell-based, human; conditions: 40 μM peptide for 1 hour, then 3 Gy IR or no radiation, 3 hours recovery, five independent experiments
Method: We monitored the ability of SP30 and SP31 to disrupt IR-induced RAD51 foci formation using IF. Cells were pre-incubated with the peptides or with vehicle (control), after which they were either treated with no radiation or with 3 Gy IR and imaged after a 3 hours recovery. We observed RAD51 foci in the absence of peptide and IR treatment, which likely reflects recombination events associated with the basal replicative stress of U2OS cells (Fig. 5 and S4 ^†). As expected, IR treatment of control cells leads to an apparent increase in the number of RAD51 foci (Fig. 5 and S4 ^†). […] We also tested whether a linear version of SP31 (L31) also affects IR-induced and baseline foci counts in five independent experiments (Fig. S5 and S6 ^†). […] It is possible that in some of the experiments the unstapled cysteines of L31 formed a disulfide bridge in the oxidising environment of cell culture, which protected it against proteolytic degradation, similarly to chemical stapling.
(A) Representative immunofluorescence images of U2OS cells incubated with SP30 (40 μM, SP30), SP31 (40 μM, SP31) or vehicle alone (control) for 1 hour, after which they were treated with 3 Gy ionising radiation (3 Gy 3 h) or no radiation (noIR) and allowed to recover for 3 hours. Cells were stained with α-RAD51 and Hoechst 33342 as indicated. Scale bar is 10 μm. […]

| Structure (SMILES) | Kd [1] | Effect on number of RAD51 foci (RAD51 foci in U2OS cells) |
| --- | --- | --- |
| CC(C)C[C@@H]1NC(=O)[C@H](CCCCN)NC(=O)[C@H](CCCCN)NC(=O)CNC(=O)[C@H](CO)NC(=O)[C@H](C)NC(=O)[C@H]([C@@H](C)O)NC(=O)[C@H](CO)NC(=O)[C@H](Cc2ccccc2)NC(=O)CNC(=O)[C@H](CO)NC(=O)[C@@H](NC(=O)CN)CSCCc2cc(nc(N)n2)CCSC[C@@H](C(=O)N[C@@H](CCC(N)=O)C(=O)N[C@@H](CCCCN)C(=O)N[C@@H](C)C(=O)N[C@H](C(=O)N[C@@H](CCCCN)C(=O)N[C@@H](CC(C)C)C(=O)N[C@@H](Cc2ccccc2)C(=O)N[C@@H](CO)C(=O)NCC(=O)O)C(C)C)NC(=O)[C@H](C)NC(=O)[C@H](CCC(N)=O)NC(=O)[C@H]([C@@H](C)O)NC(=O)[C@H](CO)NC(=O)[C@H](C(C)C)NC(=O)[C@H](CC(N)=O)NC1=O [SP30] (H-GCSGFSTASGKKLNVSTQACQKAVKLFSG-OH; linker 2-20 via X1) | 13 nM | but not SP30, significantly reduces the number of RAD51 foci |
| CC(C)C[C@@H]1NC(=O)[C@H](CCCCN)NC(=O)[C@H](CCCCN)NC(=O)CNC(=O)[C@H](CO)NC(=O)[C@H](C)NC(=O)[C@H]([C@@H](C)O)NC(=O)[C@H](CO)NC(=O)[C@H](Cc2ccccc2)NC(=O)CNC(=O)[C@H](CO)NC(=O)[C@@H](NC(=O)CNC(=O)CNC(=O)[C@H](CCCNC(=N)N)NC(=O)[C@H](CCCNC(=N)N)NC(=O)[C@H](CCCNC(=N)N)NC(=O)[C@H](CCCNC(=N)N)NC(=O)[C@H](CCCNC(=N)N)NC(=O)[C@H](CCCNC(=N)N)NC(=O)[C@H](CCCNC(=N)N)NC(=O)[C@H](CCCNC(=N)N)NC(=O)[C@H](CCCNC(=N)N)NC(=O)CN)CSCCc2cc(nc(N)n2)CCSC[C@@H](C(=O)N[C@@H](CCC(N)=O)C(=O)N[C@@H](CCCCN)C(=O)N[C@@H](C)C(=O)N[C@H](C(=O)N[C@@H](CCCCN)C(=O)N[C@@H](CC(C)C)C(=O)N[C@@H](Cc2ccccc2)C(=O)N[C@@H](CO)C(=O)NCC(=O)O)C(C)C)NC(=O)[C@H](C)NC(=O)[C@H](CCC(N)=O)NC(=O)[C@H]([C@@H](C)O)NC(=O)[C@H](CO)NC(=O)[C@H](C(C)C)NC(=O)[C@H](CC(N)=O)NC1=O [SP31] (H-GRRRRRRRRRGGCSGFSTASGKKLNVSTQACQKAVKLFSG-OH; linker 13-31 via X1) | 14 nM | significantly reduces the number of RAD51 foci in both IR-treated and untreated cells; also recorded: disrupts RAD51 foci formation |
